pIC50: −log10 of the molar value.
Legend:
[1] = target: T1, GRK2 (Homo sapiens, UniProt P25098); assay: ADPGlo GRK2 Inhibition Assay (Example 8); format: biochemical; details: Enzyme Assay A, ADPGlo (Example 8); read-out: A: Enzymatic GRK2: IC50 (nM) (Example 8)
T1 construct: purchased SignalChem A14-10G
T1 sequence (P25098 1-689): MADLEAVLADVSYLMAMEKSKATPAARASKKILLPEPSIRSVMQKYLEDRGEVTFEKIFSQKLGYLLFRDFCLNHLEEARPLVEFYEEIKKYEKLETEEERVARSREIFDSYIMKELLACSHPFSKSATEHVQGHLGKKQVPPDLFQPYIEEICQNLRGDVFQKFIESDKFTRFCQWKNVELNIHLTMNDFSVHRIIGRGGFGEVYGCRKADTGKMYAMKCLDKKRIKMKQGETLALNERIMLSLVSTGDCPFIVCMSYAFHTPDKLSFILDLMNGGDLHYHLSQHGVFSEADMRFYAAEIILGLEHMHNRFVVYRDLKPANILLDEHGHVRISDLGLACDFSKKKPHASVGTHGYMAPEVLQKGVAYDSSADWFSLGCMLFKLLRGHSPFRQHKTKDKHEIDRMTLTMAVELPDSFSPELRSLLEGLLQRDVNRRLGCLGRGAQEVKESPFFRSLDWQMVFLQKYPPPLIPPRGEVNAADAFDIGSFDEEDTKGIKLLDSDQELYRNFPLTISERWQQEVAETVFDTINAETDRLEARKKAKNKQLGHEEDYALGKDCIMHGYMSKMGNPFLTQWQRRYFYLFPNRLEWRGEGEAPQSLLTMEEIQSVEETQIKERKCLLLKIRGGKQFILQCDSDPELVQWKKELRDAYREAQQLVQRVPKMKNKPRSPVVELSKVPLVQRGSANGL
Summary of the method: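 GRK2 (15 nM 2× enzyme solution) was preincubated 15 min with compound, then reacted 180 min at room temperature with 2× mix of 20 μM ATP plus GRKtide in HEPES pH 7.5, MgCl2, Tween-20, DTT. ADP was detected by ADP-Glo luminescence. Percent inhibition was normalised to enzyme and no-enzyme controls, with dose-response curves from threefold dilutions starting at 100 μM.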

[2] = system: PAXF1657 control empty vector cell line; assay: 7-day proliferation assay, PAXF1657 control empty vector cell line (Example 9); format: cell-based; details: 168 h; Cell Line: PAXF1657 empty vector (EV) cell line; 7-day; read-out: C: 7-day proliferation assay: IC50 GeoMean
Summary of the method: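 Seven-day growth in PAXF1657 lines engineered for GRK2 overexpression or knockout, measured by CellTiter-Glo; compounds tested at 30 μM-0.0002 μM final and replenished once at day 3.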

| Compound | IC50 [1] | pIC50 [2] |
| --- | --- | --- |
| Cn1c(CNc2cccc(C(=O)NC(C)(C)c3ccncc3)c2)nnc1-c1ccncn1 | 49 nM | < 5.00 |
| Cn1c(CNc2cccc(C(=O)NCc3ncccc3F)c2)nnc1-c1ccncn1 | 69 nM | 6.79 |
| COCC(NC(=O)c1cccc(NCc2nnc(-c3ccncn3)n2C)c1)c1ccccc1 (stereo not drawn) | 36 nM | < 5.00 |
| Cn1c(CNc2cccc(C(=O)NCc3cnccc3C(F)(F)F)c2)nnc1-c1ccncn1 | 39 nM | < 5.00 |
| Cn1c(CNc2cccc(C(=O)NCc3c(Cl)cncc3Cl)c2)nnc1-c1ccncn1 | 31 nM | 5.36 |
| Cn1c(CNc2cccc(C(=O)NCc3ccncc3C(F)(F)F)c2)nnc1-c1ccncn1 | 33 nM | < 5.00 |
| CC(C)c1ocnc1CNC(=O)c1cccc(NCc2nnc(-c3ccncn3)n2C)c1 | 350 nM | < 5.00 |
| COc1ccccc1[C@H](C)NC(=O)c1cccc(NCc2nnc(-c3ccncn3)n2C)c1 | 94 nM | < 5.00 |
| COC[C@H](NC(=O)c1cccc(NCc2nnc(-c3ccncn3)n2C)c1)c1ccccn1 | 54 nM | < 5.00 |
| Cn1c(CNc2cccc(C(=O)NCc3ccccc3CN3CCCC3=O)c2)nnc1-c1ccncn1 | 49 nM | < 5.00 |
| C[C@H](NC(=O)c1cccc(NCc2nnc(-c3ccncn3)n2C)c1)c1cncs1 | 410 nM | < 5.00 |
| COc1ccnc(CNC(=O)c2cccc(NCc3nnc(-c4ccncn4)n3C)c2)c1F | 200 nM | < 5.00 |
| Cn1c(CNc2cccc(C(=O)NCc3cccc(C#N)c3F)c2)nnc1-c1ccncn1 | 30 nM | < 5.00 |
| CC(NC(=O)c1cccc(NCc2nnc(-c3ccncn3)n2C)c1)c1ncnn1C (stereo not drawn) | 230 nM | < 5.00 |
| Cc1cccnc1C(C)(C)NC(=O)c1cccc(NCc2nnc(-c3ccncn3)n2C)c1 | 630 nM | < 5.00 |
| COc1cccnc1CNC(=O)c1cccc(NCc2nnc(-c3ccncn3)n2C)c1 | 290 nM | < 5.00 |
| COc1ncccc1CNC(=O)c1cccc(NCc2nnc(-c3ccncn3)n2C)c1 | 70 nM | < 5.00 |
| Cn1c(CNc2cccc(C(=O)N[C@H]3CCOc4ccc(C(F)(F)F)cc43)c2)nnc1-c1ccncn1 | 834 nM | 4.55 |
| Cn1c(CNc2cccc(C(=O)N[C@@H](CCO)c3ccccc3)c2)nnc1-c1ccncn1 | 65.9 nM | 4.88 |
| CNS(=O)(=O)c1cccc(F)c1CNC(=O)c1cccc(NCc2nnc3n2CCOc2cnccc2-3)c1 | 85.3 nM | 5.55 |
| O=C(N[C@H]1COCc2ccccc21)c1cccc(NCc2nnc(-c3ccncn3)n2CCO)c1 | 38.1 nM | < 5.68 |
| Cn1c(CNc2cccc(C(=O)N[C@@H]3COCc4ccccc43)c2)nnc1-c1ccncc1F | 227 nM | < 4.52 |
| Cn1c(CNc2cccc(C(=O)N[C@H]3COCc4ccccc43)c2)nnc1-c1ccncc1F | 32.5 nM | 7.21 |
| Cn1c(CNc2cccc(C(=O)N[C@@H]3COCc4c(Cl)cccc43)c2)nnc1-c1ccncc1F | 60.4 nM | < 4.52 |
| CNS(=O)(=O)c1cccc(F)c1CNC(=O)c1cccc(NCc2nnc(-c3ccncc3F)n2C)c1 | 33.9 nM | 5.57 |
| Cn1c(CNc2cccc(C(=O)N[C@H]3COc4cc(F)ccc43)c2)nnc1-c1ccncc1F | 111 nM | < 4.52 |
| Cn1c(CNc2cccc(C(=O)N[C@H]3CCOc4c(Cl)cccc43)c2)nnc1-c1ccncc1 | 32.1 nM | < 4.52 |

Compounds with a lower IC50 [1], results first:

| IC50 [1] | Compound | pIC50 [2] |
| --- | --- | --- |
| 16 nM | CCn1ncc(Cl)c1CNC(=O)c1cccc(NCc2nnc(-c3ccncn3)n2C)c1 | < 5.00 |
| 16 nM | COc1cccc(F)c1CNC(=O)c1cccc(NCc2nnc(-c3ccncn3)n2C)c1 | 6.83 |
| 10 nM | Cc1cnc(CNC(=O)c2cccc(NCc3nnc(-c4ccncn4)n3C)c2)c(C)c1 | < 5.00 |
| 22 nM | COc1cccc(CNC(=O)c2cccc(NCc3nnc(-c4ccncn4)n3C)c2)c1 | < 4.52 |
| 4.9 nM | CC(NC(=O)c1cccc(NCc2nnc(-c3ccncn3)n2C)c1)c1ccsc1 (stereo not drawn) | < 5.00 |
| 24 nM | Cn1c(CNc2cccc(C(=O)NCc3c(F)cccc3-n3cccn3)c2)nnc1-c1ccncn1 | < 5.00 |
| 11 nM | Cn1c(CNc2cccc(C(=O)N[C@H]3CCOc4c(F)cccc43)c2)nnc1-c1ccncn1 | 5.91 |
| 22 nM | Cn1c(CNc2cccc(C(=O)NCc3cccc(C(F)F)c3)c2)nnc1-c1ccncn1 | < 5.00 |
| 20 nM | Cn1c(CNc2cccc(C(=O)NCc3ccccc3)c2)nnc1-c1ccncn1 | < 5.00 |
| 19 nM | Cn1c(CNc2cccc(C(=O)NCc3ccc(F)cc3)c2)nnc1-c1ccncn1 | 5.67 |
| 13 nM | Cc1ccncc1CNC(=O)c1cccc(NCc2nnc(-c3ccncn3)n2C)c1 | 6.25 |
| 29 nM | COc1c(C)cccc1CNC(=O)c1cccc(NCc2nnc(-c3ccncn3)n2C)c1 | 5.69 |
| 15 nM | CC(NC(=O)c1cccc(NCc2nnc(-c3ccncn3)n2C)c1)c1ccncc1F (stereo not drawn) | 6.99 |
| 5.38 nM | CNS(=O)(=O)c1cccc(F)c1CNC(=O)c1cccc(NCc2nnc(-c3ccncc3)[nH]2)c1 | 5.44 |
| 7.92 nM | O=C(N[C@@H]1COc2cc(F)ccc21)c1cccc(NCc2nnc(-c3ccncc3)[nH]2)c1 | 6.22 |
| 27.9 nM | O=C(N[C@H]1COc2cc(F)ccc21)c1cccc(NCc2nnc(-c3ccncc3)[nH]2)c1 | 5.39 |
| 9.54 nM | Cn1c(CNc2cccc(C(=O)N[C@H](CCO)c3ccccc3)c2)nnc1-c1ccncn1 | 5.38 |
| 25.8 nM | Cn1c(CNc2cccc(C(=O)N[C@@H]3COc4cc(F)ccc43)c2)nnc1-c1ccncn1 | 6.93 |

| IC50 [1] | Compound | pIC50 [2] |
| --- | --- | --- |
| 9.03 nM | Cn1c(CNc2cccc(C(=O)N[C@H]3COc4cc(F)ccc43)c2)nnc1-c1ccncn1 | < 4.52 |
| 22.2 nM | CCCn1c(CNc2cccc(C(=O)NCc3c(F)cccc3S(=O)(=O)NC)c2)nnc1-c1ccncn1 | < 5.49 |
| 3.35 nM | CCCn1c(CNc2cccc(C(=O)N[C@@H]3COc4cc(F)ccc43)c2)nnc1-c1ccncn1 | < 4.52 |
| 10.5 nM | CCCn1c(CNc2cccc(C(=O)N[C@H]3COc4cc(F)ccc43)c2)nnc1-c1ccncn1 | < 4.52 |
| 1.47 nM | O=C(N[C@@H]1COCc2ccccc21)c1cccc(NCc2nnc(-c3ccncn3)n2CCO)c1 | 6.23 |
| 22.4 nM | O=C(N[C@@H]1COc2cc(F)ccc21)c1cccc(NCc2nnc(-c3ccncn3)n2CCO)c1 | 7.60 |
| 3.84 nM | O=C(N[C@H]1COc2cc(F)ccc21)c1cccc(NCc2nnc(-c3ccncn3)n2CCO)c1 | 6.59 |
| 9.28 nM | O=C(N[C@@H]1COCc2ccccc21)c1cccc(NCc2nnc(-c3ccncc3)n2CCO)c1 | < 4.52 |
| 10.9 nM | O=C(N[C@H]1COCc2ccccc21)c1cccc(NCc2nnc(-c3ccncc3)n2CCO)c1 | 7.38 |
| 9.91 nM | O=C(N[C@@H]1COCc2c(Cl)cccc21)c1cccc(NCc2nnc(-c3ccncc3)n2CCO)c1 | 7.62 |
| 7.18 nM | O=C(N[C@H]1COCc2c(Cl)cccc21)c1cccc(NCc2nnc(-c3ccncc3)n2CCO)c1 | < 4.52 |
| 4.8 nM | O=C(N[C@@H]1COc2cc(F)ccc21)c1cccc(NCc2nnc(-c3ccncc3)n2CCO)c1 | 5.50 |
| 23.2 nM | O=C(N[C@H]1COc2cc(F)ccc21)c1cccc(NCc2nnc(-c3ccncc3)n2CCO)c1 | < 4.52 |
| 21.9 nM | Cn1c(CNc2cccc(C(=O)N[C@H]3COCc4c(Cl)cccc43)c2)nnc1-c1ccncc1F | 6.61 |
| 22.7 nM | Cn1c(CNc2cccc(C(=O)N[C@@H]3COc4cc(F)ccc43)c2)nnc1-c1ccncc1F | 6.70 |
| 15.2 nM | CNS(=O)(=O)c1cccc(F)c1CNC(=O)c1cccc(NCc2nnc(-c3ccncc3)n2C)c1 | 5.91 |
| 27.5 nM | Cn1c(CNc2cccc(C(=O)N[C@@H]3CCOc4c(Cl)cccc43)c2)nnc1-c1ccncc1 | < 6.06 |
| 6.81 nM | Cn1c(CNc2cccc(C(=O)N[C@H]3COc4cc(F)ccc43)c2)nnc1-c1ccncc1 | < 5.13 |

— patent US20230009608A1, “GRK2 INHIBITORS AND USES THEREOF” (Cygnal Therapeutics, Inc., priority 2020, published 2023)
